Measured values as given in US10729680B2, “5-substituted 2-(morpholin-4-yl)-1,7-naphthyridines” (BAYER PHARMA AKTIENGESELLSCHAFT, priority 2016, dated 2020).

Assays:
[1] = biological target: full-length human ATR protein (ATR/ATRIP) (Homo sapiens (Human), UniProt Q13535); assay: Binding Assay ATR (TR-FRET, tracer A displacement); conditions: displacement of fluorescent tracer A from GST-ATR/ATRIP
Summary of the method: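 GST-tagged full-length human ATR co-purified with ATRIP, 4.2 nM stock working solution, pre-complexed 30 min with 4.2 nM anti-GST-Tb in HEPES pH 7.0/MgCl2/DTT buffer. Compound pre-bound 10 min, then tracer A (100 nM solution) added for 30 min at 22 °C. 570/545 nm TR-FRET ratio; 11 concentrations 20 μM-0.1 nM; IC50 by 4-parameter fit.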

HeLa cells = assay: Proliferation assay (HeLa, crystal violet); type: cell-based; conditions: Homo sapiens, 96 h, 4 days incubation, crystal violet staining, read-out: Inhibition of HeLa cell proliferation
Procedure: Human tumour cells were originally obtained from the American Type Culture Collection (ATCC), the Deutsche Sammlung von Mikroorganismen und Zellkulturen (DSMZ, German Collection of Microorganisms and Cell Cultures) or Epo GmbH, Berlin.
Adherently growing cells (HeLa, HeLa-MaTu-ADR, HT-144, Lovo, HT-29, NCI-H460, DU145, Caco2, B16F10) were plated out in a density of 1500-4000 cells/measurement point, depending on the rate of growth of the cell line, in a 96-well multititre plate in 200 μl of growth medium (DMEM/HAMS F12, 2 mM L-glutamine, 10% foetal calf serum). After 24 hours, the cells of one plate (zero plate) were dyed with crystal violet (see below), whereas the medium of the other plates was replaced with fresh culture medium (200 μl) to which the test substances were added in various concentrations (0 μM, and also in the range of 0.001-10 μM; the final concentration of the solvent dimethyl sulphoxide was 0.1 or 0.5%). The cells were incubated for 4 days in the presence of the test substances. Cell proliferation was determined by staining the cells with crystal violet: the cells were fixed at room temperature for 15 min by adding 20 μl/measurement point of an 11% strength glutaraldehyde solution. After washing the fixed cells three times with water, the plates were dried at room temperature. The cells were stained by adding 100 μl/measurement point of a 0.1% strength crystal violet solution (pH adjusted to pH 3 by adding acetic acid). After washing the cells three times with water, the plates were dried at room temperature. The dye was dissolved by adding 100 μl/measurement point of a 10% strength acetic acid solution. Absorbance was determined photometrically at a wavelength of 595 nm. The percentage change in cell growth was calculated by normalizing the measured values to the absorbance values of the zero plate (=0%) and the absorbance of the untreated (0 μM) cells (=100%). The IC50 values were determined by means of a four parameter fit.
Inhibition of proliferation of HeLa cells by compounds according to the present invention, determined as described above. All IC50 (inhibitory concentration at 50% of maximal effect) values are indicated in M, “n.t.” means that the compounds have not been tested in the respective assay.

Sequence of full-length human ATR protein (ATR/ATRIP) (Q13535 other isoform, or with tags, fused parts or gaps): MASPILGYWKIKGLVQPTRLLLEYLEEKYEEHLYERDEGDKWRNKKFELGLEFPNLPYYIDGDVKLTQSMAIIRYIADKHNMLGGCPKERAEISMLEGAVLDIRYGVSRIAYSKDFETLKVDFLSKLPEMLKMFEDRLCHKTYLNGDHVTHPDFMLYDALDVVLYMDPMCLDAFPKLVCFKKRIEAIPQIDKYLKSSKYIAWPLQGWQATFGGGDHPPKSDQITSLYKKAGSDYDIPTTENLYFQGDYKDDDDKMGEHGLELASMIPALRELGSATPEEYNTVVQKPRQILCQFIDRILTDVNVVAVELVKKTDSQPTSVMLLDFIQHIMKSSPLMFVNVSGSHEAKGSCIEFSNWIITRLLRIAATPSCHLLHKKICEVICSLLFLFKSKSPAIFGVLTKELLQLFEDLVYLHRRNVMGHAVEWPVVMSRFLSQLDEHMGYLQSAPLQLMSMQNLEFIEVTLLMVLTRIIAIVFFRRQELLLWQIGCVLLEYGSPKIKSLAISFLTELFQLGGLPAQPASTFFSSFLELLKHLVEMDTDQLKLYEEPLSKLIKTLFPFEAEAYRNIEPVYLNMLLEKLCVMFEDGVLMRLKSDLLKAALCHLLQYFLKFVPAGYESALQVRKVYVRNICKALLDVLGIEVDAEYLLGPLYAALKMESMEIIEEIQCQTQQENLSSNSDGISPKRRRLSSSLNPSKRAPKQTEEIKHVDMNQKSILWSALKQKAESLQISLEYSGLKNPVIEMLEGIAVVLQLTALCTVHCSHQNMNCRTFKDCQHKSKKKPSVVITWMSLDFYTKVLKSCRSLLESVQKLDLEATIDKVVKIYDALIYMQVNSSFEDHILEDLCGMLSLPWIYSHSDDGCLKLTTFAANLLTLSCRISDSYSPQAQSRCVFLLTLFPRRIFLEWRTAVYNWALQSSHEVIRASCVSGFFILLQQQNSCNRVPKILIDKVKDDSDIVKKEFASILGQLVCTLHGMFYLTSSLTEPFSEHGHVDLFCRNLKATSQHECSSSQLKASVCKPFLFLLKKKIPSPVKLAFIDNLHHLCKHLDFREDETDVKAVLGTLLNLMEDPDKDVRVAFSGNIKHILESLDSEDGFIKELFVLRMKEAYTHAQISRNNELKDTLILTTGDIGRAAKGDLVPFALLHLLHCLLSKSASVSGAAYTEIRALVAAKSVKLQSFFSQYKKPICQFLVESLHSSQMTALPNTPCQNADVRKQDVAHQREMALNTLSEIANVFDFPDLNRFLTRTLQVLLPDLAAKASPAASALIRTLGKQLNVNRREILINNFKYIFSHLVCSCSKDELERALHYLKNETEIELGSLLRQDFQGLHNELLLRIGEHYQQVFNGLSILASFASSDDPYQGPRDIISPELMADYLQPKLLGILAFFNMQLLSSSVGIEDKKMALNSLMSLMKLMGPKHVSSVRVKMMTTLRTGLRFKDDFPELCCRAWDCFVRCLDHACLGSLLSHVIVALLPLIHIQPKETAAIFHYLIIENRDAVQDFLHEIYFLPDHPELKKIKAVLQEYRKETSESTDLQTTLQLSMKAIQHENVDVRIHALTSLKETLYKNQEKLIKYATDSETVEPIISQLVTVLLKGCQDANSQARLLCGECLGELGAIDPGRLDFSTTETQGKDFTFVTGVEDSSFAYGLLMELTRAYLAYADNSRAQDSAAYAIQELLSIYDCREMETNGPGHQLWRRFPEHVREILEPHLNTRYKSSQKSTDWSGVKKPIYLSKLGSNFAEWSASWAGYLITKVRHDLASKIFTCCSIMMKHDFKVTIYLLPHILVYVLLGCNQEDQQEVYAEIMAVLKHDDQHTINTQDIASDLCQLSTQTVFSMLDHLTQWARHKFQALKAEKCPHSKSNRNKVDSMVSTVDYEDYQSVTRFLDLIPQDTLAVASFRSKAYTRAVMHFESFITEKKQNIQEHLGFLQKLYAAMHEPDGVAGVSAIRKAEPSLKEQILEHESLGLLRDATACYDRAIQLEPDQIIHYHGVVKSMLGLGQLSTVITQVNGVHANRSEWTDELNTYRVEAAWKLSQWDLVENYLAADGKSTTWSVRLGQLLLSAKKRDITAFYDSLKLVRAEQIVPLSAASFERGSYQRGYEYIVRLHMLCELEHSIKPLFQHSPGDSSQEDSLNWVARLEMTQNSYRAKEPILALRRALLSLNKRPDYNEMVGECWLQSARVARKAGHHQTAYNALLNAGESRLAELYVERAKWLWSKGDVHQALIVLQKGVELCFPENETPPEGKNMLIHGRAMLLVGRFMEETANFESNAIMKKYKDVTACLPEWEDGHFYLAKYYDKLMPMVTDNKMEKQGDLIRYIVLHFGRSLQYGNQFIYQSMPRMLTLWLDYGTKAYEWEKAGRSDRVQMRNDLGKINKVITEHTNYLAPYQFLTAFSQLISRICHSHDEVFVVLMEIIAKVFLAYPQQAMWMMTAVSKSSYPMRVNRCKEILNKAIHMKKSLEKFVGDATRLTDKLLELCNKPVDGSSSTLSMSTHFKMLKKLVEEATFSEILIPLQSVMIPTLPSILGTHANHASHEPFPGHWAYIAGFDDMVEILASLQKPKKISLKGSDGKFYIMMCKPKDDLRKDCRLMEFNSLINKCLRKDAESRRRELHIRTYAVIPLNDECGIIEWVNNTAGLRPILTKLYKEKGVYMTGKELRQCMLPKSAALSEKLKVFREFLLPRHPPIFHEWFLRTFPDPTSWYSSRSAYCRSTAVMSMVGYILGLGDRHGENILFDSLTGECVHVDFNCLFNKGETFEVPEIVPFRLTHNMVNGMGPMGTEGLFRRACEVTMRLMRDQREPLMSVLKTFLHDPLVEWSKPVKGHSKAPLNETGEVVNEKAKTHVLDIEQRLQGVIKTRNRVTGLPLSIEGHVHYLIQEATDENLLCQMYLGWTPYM
Sequence of full-length human ATR protein (ATR/ATRIP) (Q8WXE1 other isoform, or with tags, fused parts or gaps partner): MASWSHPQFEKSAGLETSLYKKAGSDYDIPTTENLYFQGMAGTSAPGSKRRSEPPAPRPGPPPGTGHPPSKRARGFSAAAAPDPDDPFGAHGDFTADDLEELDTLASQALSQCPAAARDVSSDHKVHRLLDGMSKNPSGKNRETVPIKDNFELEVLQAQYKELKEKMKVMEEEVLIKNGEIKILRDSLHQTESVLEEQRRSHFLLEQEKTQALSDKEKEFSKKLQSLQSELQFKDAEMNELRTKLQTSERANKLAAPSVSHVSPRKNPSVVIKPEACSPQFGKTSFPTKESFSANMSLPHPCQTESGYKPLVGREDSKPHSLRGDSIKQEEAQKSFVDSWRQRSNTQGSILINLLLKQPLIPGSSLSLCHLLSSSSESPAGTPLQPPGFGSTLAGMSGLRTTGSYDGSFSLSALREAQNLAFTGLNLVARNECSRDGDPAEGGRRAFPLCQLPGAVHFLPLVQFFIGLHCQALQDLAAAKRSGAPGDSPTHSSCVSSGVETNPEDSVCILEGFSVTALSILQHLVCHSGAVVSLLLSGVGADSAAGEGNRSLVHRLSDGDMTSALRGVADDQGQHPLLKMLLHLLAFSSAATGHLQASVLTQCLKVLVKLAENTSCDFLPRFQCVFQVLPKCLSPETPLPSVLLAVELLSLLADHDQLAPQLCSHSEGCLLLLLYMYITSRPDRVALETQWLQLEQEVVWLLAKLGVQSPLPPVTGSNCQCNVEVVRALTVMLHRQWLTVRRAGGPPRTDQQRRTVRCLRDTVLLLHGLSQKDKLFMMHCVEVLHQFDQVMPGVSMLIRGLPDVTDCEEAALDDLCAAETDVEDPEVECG

Row | Structure (SMILES) | IC50 [1] [nM] | IC50 (HeLa cells) [nM]
1 | Cc1cnc(-c2ccn[nH]2)c2nc(N3CCOC[C@H]3C)cc(-c3cncn3C)c12 [Example 15, 5-methyl-4-(1-methyl-1H-imidazol-5-yl)-2-[(3R)-3-methylmorpholin-4-yl]-8-(1H-pyrazol-5-yl)-1,7-naphthyridine] | 5.86 | 145
2 | Cc1ncc(-c2cc(N3CCOC[C@H]3C)nc3c(-c4ccn[nH]4)ncc(C)c23)s1 [Example 16, 5-methyl-2-[(3R)-3-methylmorpholin-4-yl]-4-(2-methyl-1,3-thiazol-5-yl)-8-(1H-pyrazol-5-yl)-1,7-naphthyridine] | 14.2 | 33.9
3 | CCOP(C)(=O)c1cc(N2CCOC[C@H]2C)nc2c(-c3ccn[nH]3)ncc(C)c12 (stereo partly drawn) [Example 17, ethyl methyl{5-methyl-2-[(3R)-3-methylmorpholin-4-yl]-8-(1H-pyrazol-5-yl)-1,7-naphthyridin-4-yl}phosphinate] | 42.2 | 112
